Assay results published in ChEMBL document CHEMBL1139112, “Solid-phase analogue synthesis of caspase-3 inhibitors via palladium-catalyzed amination of 3-bromopyrazinones” (Bioorg Med Chem Lett, 2007).

Assays:
[1] = target: T1, Caspase-1 (Homo sapiens, UniProt P29466); test: Inhibition of human recombinant caspase 1
T1 sequence (P29466 whole entry): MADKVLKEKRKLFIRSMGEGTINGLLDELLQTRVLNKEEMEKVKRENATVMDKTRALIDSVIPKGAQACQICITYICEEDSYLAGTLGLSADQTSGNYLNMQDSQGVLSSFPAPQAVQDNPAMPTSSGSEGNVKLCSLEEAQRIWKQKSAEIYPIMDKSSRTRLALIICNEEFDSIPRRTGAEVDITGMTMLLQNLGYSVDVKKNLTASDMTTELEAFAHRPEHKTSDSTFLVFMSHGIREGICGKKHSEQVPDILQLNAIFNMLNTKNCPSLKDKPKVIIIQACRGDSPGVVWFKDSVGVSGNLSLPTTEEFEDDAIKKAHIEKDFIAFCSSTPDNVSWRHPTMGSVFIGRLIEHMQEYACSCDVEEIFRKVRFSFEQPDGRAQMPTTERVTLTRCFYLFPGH

[2] = target: T2, Caspase-3 (Homo sapiens, UniProt P42574); test: Inhibition of human recombinant caspase 3
T2 sequence (P42574 whole entry): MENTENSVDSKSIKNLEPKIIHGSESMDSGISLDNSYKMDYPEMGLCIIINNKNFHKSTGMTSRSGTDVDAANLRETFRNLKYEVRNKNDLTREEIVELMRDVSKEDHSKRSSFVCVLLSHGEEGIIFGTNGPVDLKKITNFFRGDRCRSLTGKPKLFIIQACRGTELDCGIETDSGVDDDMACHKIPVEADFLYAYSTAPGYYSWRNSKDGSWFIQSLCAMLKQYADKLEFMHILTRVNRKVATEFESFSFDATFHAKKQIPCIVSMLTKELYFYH

[3] = target: T3, Caspase-7 (Homo sapiens, UniProt P55210); test: Inhibition of human recombinant caspase 7
T3 sequence (P55210 whole entry): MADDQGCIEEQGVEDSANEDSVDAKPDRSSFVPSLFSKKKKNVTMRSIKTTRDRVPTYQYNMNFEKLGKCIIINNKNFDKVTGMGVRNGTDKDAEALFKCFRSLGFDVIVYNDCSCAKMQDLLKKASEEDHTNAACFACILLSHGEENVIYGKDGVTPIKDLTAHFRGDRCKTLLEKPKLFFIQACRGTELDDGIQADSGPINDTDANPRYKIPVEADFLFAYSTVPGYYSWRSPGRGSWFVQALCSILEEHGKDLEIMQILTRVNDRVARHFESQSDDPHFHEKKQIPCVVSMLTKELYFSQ

[4] = target: Caspase-8 (Homo sapiens, UniProt Q14790); test: Inhibition of human recombinant caspase 8
Chain of Caspase-8 (Q14790 217-374 limits assumed): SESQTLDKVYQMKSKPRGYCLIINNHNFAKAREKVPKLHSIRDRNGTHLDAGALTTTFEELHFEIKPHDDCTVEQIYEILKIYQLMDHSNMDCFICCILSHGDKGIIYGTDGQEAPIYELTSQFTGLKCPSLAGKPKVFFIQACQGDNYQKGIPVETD
Chain of Caspase-8 (Q14790 385-479 limits assumed): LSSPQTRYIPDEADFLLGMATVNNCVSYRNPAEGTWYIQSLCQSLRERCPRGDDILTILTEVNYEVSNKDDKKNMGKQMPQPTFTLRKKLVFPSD

[5] = target: T2, Caspase-3; test: Inhibition of human recombinant caspase 3 in NT2 by whole cell assay

| SMILES | IC50 [1] [nM] | IC50 [2] [nM] | IC50 [3] [nM] | IC50 [4] [nM] | IC50 [5] [nM] |
| --- | --- | --- | --- | --- | --- |
| CCCCCCN(C)CC(=O)[C@H](CC(=O)O)NC(=O)C(CC)n1cc(C(C)(C)C)nc(Nc2nnn[nH]2)c1=O (stereo partly specified) | 3.4 | 6.6 | 64.7 | 163 | 6070 |
| CCC(C(=O)N[C@@H](CC(=O)O)C(=O)CCCc1ccccc1)n1cc(C(C)(C)C)nc(Nc2ccc3c(c2)OCCO3)c1=O (stereo partly specified) | 330 | 28 | 280 | 1000 | – |
| CCC(C(=O)N[C@@H](CC(=O)O)C(=O)CCCc1ccccc1)n1cc(C(C)(C)C)nc(NC(CC(C)C)C(=O)O)c1=O (stereo partly specified) | 5490 | 100 | 3490 | > 10000 | – |

Further compounds by falling IC50 [1], results first:

| IC50 [1] [nM] | IC50 [2] [nM] | IC50 [3] [nM] | IC50 [4] [nM] | IC50 [5] [nM] | SMILES |
| --- | --- | --- | --- | --- | --- |
| 2310 | 50 | 920 | 300 | – | CCC(C(=O)N[C@@H](CC(=O)O)C(=O)CCCc1ccccc1)n1cc(C(C)(C)C)nc(NCCc2cccs2)c1=O (stereo partly specified) |
| 320 | 160 | 800 | 3050 | – | CCC(C(=O)N[C@@H](CC(=O)O)C(=O)CCCc1ccccc1)n1cc(C(C)(C)C)nc(NCc2cc(OC)cc(OC)c2)c1=O (stereo partly specified) |
| 9 | 5 | 8 | 14 | 19400 | CCC(C(=O)N[C@@H](CC(=O)O)C(=O)CCCc1ccccc1)n1cc(C(C)(C)C)nc(Nc2nnn[nH]2)c1=O (stereo partly specified) |
